Tests used:
Assay in all cases: relative viability (nuclei count vs DMSO), 5 days (fraction); higher = more cells survive
Salubrinal + OSI-027 = compound: O=C(/C=C/c1ccccc1)NC(NC(=S)Nc1cccc2cccnc12)C(Cl)(Cl)Cl [Salubrinal] + COc1cccc2cc(-c3nc([C@H]4CC[C@H](C(=O)O)CC4)n4ncnc(N)c34)[nH]c12 [OSI-027] (partner 0.5 µM)
Outline: (§1)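 Relative viability was taken as the ratio of nuclei in treated wells to nuclei in vehicle wells. Lung cancer cell lines in 1536-well plates received compounds by pin tool one day after seeding, either one drug alone or a fixed anchor-drug dose plus five library-drug doses (not always all listed) in √10 steps. Nuclei were counted on 4× images after 5 days of treatment, and values are medians of duplicate plates.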

Salubrinal + AZD7762 = compound: O=C(/C=C/c1ccccc1)NC(NC(=S)Nc1cccc2cccnc12)C(Cl)(Cl)Cl [Salubrinal] + NC(=O)Nc1cc(-c2cccc(F)c2)sc1C(=O)N[C@H]1CCCNC1 [AZD7762] (partner 0.2 µM)
Outline: as §1

[1] = compound: Cc1ccc2nc(NCCN)c3ncc(C)n3c2c1 + CCNC(=O)c1noc(-c2cc(C(C)C)c(O)cc2O)c1-c1ccc(CN2CCOCC2)cc1 [Luminespib] (partner 0.01 µM)
Outline: as §1

[2] = compound: Cc1ccc2nc(NCCN)c3ncc(C)n3c2c1 + CS(=O)(=O)N1CCN(Cc2cc3nc(-c4cccc5[nH]ncc45)nc(N4CCOCC4)c3s2)CC1 [Pictilisib] (partner 1 µM)
Outline: as §1

Cell Line	relative viability (Salubrinal + OSI-027; first compound 0.08 µM)	relative viability (Salubrinal + OSI-027; first compound 0.253 µM)	relative viability (Salubrinal + OSI-027; first compound 0.8 µM)	relative viability (Salubrinal + OSI-027; first compound 2.53 µM)	relative viability (Salubrinal + OSI-027; first compound 8 µM)	relative viability (Salubrinal + AZD7762; first compound 0.08 µM)	relative viability (Salubrinal + AZD7762; first compound 0.8 µM)	relative viability (Salubrinal + AZD7762; first compound 2.53 µM)	relative viability (Salubrinal + AZD7762; first compound 8 µM)	relative viability ([1]; first compound 0.04 µM)	relative viability ([1]; first compound 0.1265 µM)	relative viability ([1]; first compound 1.265 µM)	relative viability ([1]; first compound 4 µM)	relative viability ([2]; first compound 0.04 µM)	relative viability ([2]; first compound 0.4 µM)	relative viability ([2]; first compound 1.265 µM)	relative viability ([2]; first compound 4 µM)	relative viability (Salubrinal + AZD7762; first compound 0.253 µM)	relative viability ([1]; first compound 0.4 µM)	relative viability ([2]; first compound 0.1265 µM)
NCI-H1915	0.628	0.609	0.716	0.682	0.637	0.713	0.718	0.71	0.676	0.721	0.783	0.598	0.636	0.969	0.578	0.939	0.923			
NCI-H1944	0.384	0.389	0.483	0.387	0.406	0.563	0.472	0.433	0.596	0.735	0.735	0.817	0.844	0.331	0.319	0.363	0.328	0.471	0.663	0.37
NCI-H1975	0.959	0.567	0.891	0.703	0.405	0.691	0.853	0.744	0.601	0.224	0.243	0.116	0.153	0.317	0.245	0.261	0.242	0.611	0.326	0.281
NCI-H1993	0.58	0.564	0.509	0.495	0.584	0.909	0.871		0.612	1.01	0.944	0.887	0.859	0.804	0.693	0.765	0.771	0.744	0.902	0.648
NCI-H2085	0.793	0.629	0.848	0.712	0.717	1.14	0.944	0.946	0.932	0.492	0.463	0.442	0.393	0.515	0.429	0.551	0.422	0.905	0.446	0.436
NCI-H2087	0.517	0.481	0.626	0.515	0.563	1.44	1.44	1.31	1.29	0.214	0.2	0.267	0.162	1.05	0.816	0.981	0.984	0.751	0.152	0.824
NCI-H2126	0.7	0.721	0.725	0.695	0.659	1.05	1.06	0.992	0.909	0.998	0.867	0.89	0.832	0.512	0.489	0.453	0.456	0.936	0.917	0.512
NCI-H2170	0.71	0.702	0.783	0.687	0.47	0.953	0.995	0.792	0.878	0.637	0.699	0.855	0.64	0.31	0.361	0.292	0.319	0.942	0.516	0.337

— the supplement of paper PMC10307832
